Paper PMC12057046, “Elucidation of short linear motif-based interactions of the MIT and rhodanese domains of the ubiquitin-specific protease 8” (Biology Direct, 2025)

Key:
USP8 Rhod domain = molecular target: T1, USP8 Rhod domain (Homo sapiens, UniProt P40818); assay: SPOT array of predicted peptides from known interactors, USP8 Rhod domain; type: binding; conditions: Rhod-Peptide screening, SPOT array of predicted peptides; KIAA1614 positive control = 100
T1 construct: USP8 Rhod (174–317) (UniProt: P40818); GST (cleaved yes); made in house; host or cells: Escherichia coli BL21-Gold (DE3)
T1 sequence (P40818 174-317): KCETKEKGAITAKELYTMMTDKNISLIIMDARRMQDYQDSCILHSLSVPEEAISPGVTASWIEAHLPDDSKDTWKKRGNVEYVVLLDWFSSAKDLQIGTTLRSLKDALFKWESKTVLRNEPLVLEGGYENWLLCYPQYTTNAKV
Description: The results therefore support that the USP8 Rhod domain binds to two distinct types of motifs (Fig. 4A, B). We used the motifs to scan for matching motifs in previously reported interactors using the SLiMSearch algorithm (Supplementary Table S8 A). As there was no clear match for the TET3-type motif except from only one hit, we focused on the KIAA1614-type motif. […] Both TP63 and USP21 are previously reported USP8 substrates, and the interactions may potentially contribute to substrate targeting. […] As the SHANK3 peptides (351-[…]−365 and 392-[…]−406) are closely located in the primary structure of SHANK3, it is tempting to speculate that both motifs contribute to the interactions between the full-length proteins by increasing the local concentration of binding motifs. […] Taken together, we find that the USP8 Rhod domain is a peptide binding domain that can be bound by peptides of two distinct types of motifs, with the Rx[LI]xGxxxPxxL motif and variants thereof being found in known USP8 substrates.
SPOT array alanine scanning of peptides was designed, and cellulose-bound peptides were synthesized using Fluorenylmethyloxycarbonyl (Fmoc) solid phase synthesis with a MultiPep synthesizer (INTAVIS Peptide Services, Tübingen, Germany). The membranes of predicted peptides were purchased by JPT Peptide Technologies (Berlin, Germany). The membranes were incubated with blocking buffer containing 5% skim milk in TBST (50 mM Tris, 150 mM NaCl pH 7.5, 0.05% Tween-20) for two hours at room temperature. The blocked membranes were incubated with GST-tagged proteins (100 µM for MIT domain and 150 µM for the Rhodanese domain) in blocking buffer overnight at 4 °C. After rinsed with TBST the membranes were incubated with HRP-conjugated anti-GST antibody (Cytiva, RPN1236; 1:3000 dilution) in blocking buffer for 1 h at 4 °C and subsequently rinsed with TBST to remove any excess antibody. The ECL reagent (Clarity Max Western ECL substrate, 1705062, BioRad) was used for chemiluminescence read-out with the ChemiDoc Imaging system (BioRad). The images were analysed with Fiji (ImageJ2 version 2.9.0). SLiMSearch4 was used to design the peptide arrays with known interactors predicted to contain the motifs. The background signal intensity was subtracted, and the corrected signal intensities were normalized to the positive control and presented as percentage.

USP8 MIT domain [1] = assay: Proteomic peptide-phage display (ProP-PD) selection against USP8 MIT domain; type: binding, human; set-up: Confidence: scale not given here
Method: We explored the peptide-binding of the USP8 MIT domain by using the purified GST-tagged MIT domain as bait in proteomic peptide-phage display (ProP-PD) selections and a library designed to display the predicted unstructured regions of the human proteome. The peptide-coding regions of the binding-enriched phage pools were analysed by next-generation sequencing (NGS). After filtering for high confidence ligands, ten ligands remained (Fig. 1B; Supplementary Table S1). None of the ten identified protein-protein interactions had been previously reported, based on comparison with the information available in IntAct, HIPPIE and BioGrid (February 2025). Of the USP8 interacting proteins found, the D site-binding protein (DBP), which is a clock-controlled transcription factor, appears as an interesting ligand as USP8 has been reported to be involved in controlling the circadian rhythm. Also, the CCDC88A-encoded protein Girdin is an interactor of potential biological relevance as it is a scaffolding protein involved in the EGFR pathway which USP8 is known to regulate. At the motif level, there was no shared consensus motif among the ten peptide ligands. However, by manual inspection we noticed that four of the peptides contained a shared [LI]xxR[IY]xxL sequence, which appears to be a variation of the [DE]xxLxxRLxxL[KR] MIM1 motif described in the Eukaryotic Linear Motif resource (ELM) (Fig. 1B). We performed a SPOT array alanine scanning analysis in which peptides are synthesised on a membrane, and where each amino acid position of the peptide is mutated to alanine (or glycine if alanine is in the wild type peptide) to evaluate the effect of the amino acid residues in binding. We tested two peptides containing the apparent MIM1-like motif, one from Girdin (Girdin1192 − 1207) and one from the histone-lysine N-methyltransferase SETD1B (SETD1B492 − 507). […] AlphaFold3 (AF3) modelling of the four peptides with the variant MIM1 motif and the MIT domain docked the peptides with high confidence (ipTM scores: HIVEP1_741 − 756: 0.87, Girdin1192 − 1207: 0.85, MLPH481 − 496: 0.82, SETD1B492 − 507: 0.75) at the expected MIM1 binding pocket (Fig. 1D). […] However, the USP8 MIT selection was dominated (more than 94% of NGS counts) by two peptides that lack an apparent MIM1 motif. The two peptides were from the EF-hand calcium-binding domain-containing protein 12 (EFCAB12_1 − 16: […]) and from DBP (DBP116 − 131: […]) (Fig. 1B). […] In comparison to this, the EFCAB12_1 − 16 peptide shares a potential Dx[YF]xxxH[SG] motif with the DBP116 − 131 (Fig. 1B). […] The AF3 model of DBP116 − 131 peptide supports the interaction of D120 of the DBP116 − 131 peptide with the residues K74 and N71 in the MIT domain (Fig. 1G), emphasizing the significance of the aspartic acid at this position. […] Of them, two peptides (SYNE2_853 − 868 and PKNOX1_56 − 71) where placed in the same binding site as the Girdin and DBP peptides with high confidences by AF3 modelling (ipTM 0.92 and 0.74; Supplementary Fig. S3).
Four rounds of phage selections were carried out using the second generation human disorderome library or the constructed deep mutational scanning library. At least three individual replicates were used for each bait protein. 10 µg of GST-tagged proteins or GST control (diluted in PBS from the stock of proteins kept in the purification elution buffer) were immobilized in 100 µL PBS on a 96-well MaxiSorp (Nunc) plate overnight at 4 °C. The plates were incubated with blocking buffer (with 0.5% BSA in PBS) for 1 h at 4 °C followed by washing with 0.05% Tween 20 in PBS four times. The naïve phage library (10^11 CFU) was diluted in 1/5th volume PEG/NaCl (20% PEG-8000, 0.4 M NaCl) and 1X PBS, incubated on ice for 10 min and centrifuged at 10,000 [drawing 3] g for 10 min. The pellet was resuspended in the volume of PBS (100 µL/ well). […]

USP8 MIT domain [2] = assay: SPOT array of predicted peptides from known interactors, USP8 MIT domain; type: binding, human; conditions: for Percentage (%) normalized to highest intensity and corrected for background: SPOT array, GST-tagged MIT 100 µM, overnight 4 °C, chemiluminescence, highest intensity = DNAJB6; for Percentage (%): Supplementary Fig. 4B, normalized to the highest intensity and corrected for background
Description: To further assess the SLiM-based interactions of the USP8 MIT domain, we designed a peptide array tiling 24 potential binding sites in previously reported USP8 interactors. We used SLiMSearch to search for peptides that contain shorter or longer matches to the motif (Supplementary Table S4A). […] The DNAJB6_118 - 130 peptide was predicted as a binder based on a partial DFx{2,3}R motif. The DNAJB6-USP8 interaction is supported by previous GST-pulldown experiments and colocalization of the two proteins in male mouse germ cells, and the interaction is thought to be of importance to the protein quality control to yield functional spermatozoa. In the case of the CDH1_863 - 877 peptide it was predicted as USP8 MIT ligand based on the presence of an RFxxL motif. The previous support of the CDH1-USP8 interaction is based on proximity labelling mass spectrometry, and our results thus provide evidence for a binary interaction between the two proteins and define a binding site. To confirm that the motifs used to predict the interactions were of importance for binding we designed an alanine scanning peptide SPOT array analysis of the DNAJB6_118 - 130 and the CDH1_863 - 877 peptides. […] In summary, we find that the USP8 MIT domain binds to a MIM1-like motif that can be expressed by [[…]], as well as degenerate variants thereof. […] The membranes of predicted peptides were purchased by JPT Peptide Technologies (Berlin, Germany). The membranes were incubated with blocking buffer containing 5% skim milk in TBST (50 mM Tris, 150 mM NaCl pH 7.5, 0.05% Tween-20) for two hours at room temperature. The blocked membranes were incubated with GST-tagged proteins (100 μM for MIT domain and 150 μM for the Rhodanese domain) in blocking buffer overnight at 4 °C. After rinsed with TBST the membranes were incubated with HRP-conjugated anti-GST antibody (Cytiva, RPN1236; 1:3000 dilution) in blocking buffer for 1 h at 4 °C and subsequently rinsed with TBST to remove any excess antibody. The ECL reagent (Clarity Max Western ECL substrate, 1705062, BioRad) was used for chemiluminescence read-out with the ChemiDoc Imaging system (BioRad). The images were analysed with Fiji (ImageJ2 version 2.9.0). […] used to design the peptide arrays with known interactors predicted to contain the motifs. The background signal intensity was subtracted, and the corrected signal intensities were normalized to the positive control and presented as percentage.

SYAKRRRLAGPSGLA
Percentage (%) normalized to highest intensity and corrected for background (USP8 Rhod domain): 7%

ASQAVPTFLMATAAA
Percentage (%) normalized to highest intensity and corrected for background (USP8 Rhod domain): -0.581%

GKPPTPGVLMVHPPP
Percentage (%) normalized to highest intensity and corrected for background (USP8 Rhod domain): -1.22%

PRPTAPKPLLPRREE
Percentage (%) normalized to highest intensity and corrected for background (USP8 Rhod domain): 0.0399%

FDQPHPQGLLPCQPQ
Percentage (%) normalized to highest intensity and corrected for background (USP8 Rhod domain): 4.4%

PIPSSSPPPLSSPL
Percentage (%) normalized to highest intensity and corrected for background (USP8 Rhod domain): -1.42%

AQPPTPGVLMVHPSA
Percentage (%) normalized to highest intensity and corrected for background (USP8 Rhod domain): -1.3%

SPEKSSPQALVPNG
Percentage (%) normalized to highest intensity and corrected for background (USP8 Rhod domain): 1%

PKPPRPASLLRHAPH
Percentage (%) normalized to highest intensity and corrected for background (USP8 Rhod domain): 5%

SLRRLGGFPGPPTLFS
Percentage (%) normalized to highest intensity and corrected for background (USP8 Rhod domain): 39%

TGLTVPPALLRANSD
Percentage (%) normalized to highest intensity and corrected for background (USP8 Rhod domain): -1.11%

SQLPSSPAQLSCRS
Percentage (%) normalized to highest intensity and corrected for background (USP8 Rhod domain): 9%

GMERVLGGLSSPLRLL [KIAA1614 Positive control]
Percentage (%) normalized to highest intensity and corrected for background (USP8 Rhod domain): 100%

AQPPAPGVLMAQPLT
Percentage (%) normalized to highest intensity and corrected for background (USP8 Rhod domain): -1.21%

SPLGRPESLLQSNTL
Percentage (%) normalized to highest intensity and corrected for background (USP8 Rhod domain): -0.544%

SQKELESYMMRAQQLL [SYNE2_853 − 868, Nesprin-2 peptide]
NGS counts (%) (USP8 MIT domain [1]; ProP-PD, human disorderome library, GST-tagged MIT bait, four rounds of selection, percent of NGS counts associated with each peptide, Fig. 1B): 0.43% | max_counts (USP8 MIT domain [1]; Total NGS counts): 21 | Confidence (USP8 MIT domain [1]; calculated based on four metrics: overlapping peptides, replicated peptides, motif match, peptide counts): 2 | Counts (USP8 MIT domain [1]; fraction of NGS counts for a selection): 0.0007925 | Promiscuity (USP8 MIT domain [1]; number of baits selections where the peptide has been observed, calculated on the domain level): 1 | Replicates (USP8 MIT domain [1]; number of screens against the bait protein in which the peptide has been found): 3 | Specificity (USP8 MIT domain [1]; proportion for the current bait of the total NGS read counts of the peptide for all baits screened with this library): 1 | Percentage (%) normalized to highest intensity and corrected for background (USP8 MIT domain [2]): -4% | Percentage (%) (USP8 MIT domain [2]): -4%

PEKGARSLAGPPPHF
Percentage (%) normalized to highest intensity and corrected for background (USP8 Rhod domain): -1.37%

EINLQRNIAGKVVTP
Percentage (%) normalized to highest intensity and corrected for background (USP8 Rhod domain): -1.5%

GELLLLSLLLLLEP [PDGFRB, Platelet-derived growth factor receptor beta peptide]
Percentage (%) normalized to highest intensity and corrected for background (USP8 MIT domain [2]): -3.37% | Percentage (%) (USP8 MIT domain [2]): -3%

DPSNNFRLHNGRS [CFLAR, CASP8 and FADD-like apoptosis regulator peptide]
Percentage (%) normalized to highest intensity and corrected for background (USP8 MIT domain [2]): 31% | Percentage (%) (USP8 MIT domain [2]): 31%

APPSLLLLLLAQLV [FZD5, Frizzled-5 peptide]
Percentage (%) normalized to highest intensity and corrected for background (USP8 MIT domain [2]): 24% | Percentage (%) (USP8 MIT domain [2]): 24%

SRGLQLLLLSCAYS [CD83, CD83 antigen peptide]
Percentage (%) normalized to highest intensity and corrected for background (USP8 MIT domain [2]): 5.58% | Percentage (%) (USP8 MIT domain [2]): 6%

MDLLFGRRKTPEELL [CHMP2A, Charged multivesicular body protein 2a peptide]
Percentage (%) normalized to highest intensity and corrected for background (USP8 MIT domain [2]): -8% | Percentage (%) (USP8 MIT domain [2]): -8%

SEENGLPLLVLPPP [SHANK1 A11, SHANK1 peptide, array position A11]
Percentage (%) normalized to highest intensity and corrected for background (USP8 MIT domain [2]): -5.69% | Percentage (%) (USP8 MIT domain [2]): -6%

KEPDALTLLAPAAG [HIF1A, Hypoxia-inducible factor 1-alpha peptide]
Percentage (%) normalized to highest intensity and corrected for background (USP8 MIT domain [2]): -0.189% | Percentage (%) (USP8 MIT domain [2]): 0%

TEQETLALLEVKRS [TMEM79, Transmembrane protein 79 peptide]
Percentage (%) normalized to highest intensity and corrected for background (USP8 MIT domain [2]): -4% | Percentage (%) (USP8 MIT domain [2]): -4%

AGAALLALLAALCP [EGFR, Epidermal growth factor receptor peptide]
Percentage (%) normalized to highest intensity and corrected for background (USP8 MIT domain [2]): 6% | Percentage (%) (USP8 MIT domain [2]): 6%
